Values quoted from earlier work as cited in patent US20080233128A1, “Treatment of Viral Infections” (priority 2006, published 2008).

Test system: circulating T-cells

alemtuzumab
time to full recovery of T-cells (after a single dose, FIG. 1): ≥ 3 months | T-cell depletion (killing of circulating T-cells) (single dose, FIG. 1, mean ALC as a function of time): kill all circulating T-cells
